Reference: article PMC6261607, “Novel high–throughput myofibroblast assays identify agonists with therapeutic potential in pulmonary fibrosis that act via EP2 and EP4 receptors” (PLoS ONE, 2018)
Where two headings read alike, the source gives them in different places.

How the values were obtained:
[1] = tested on: normal human lung fibroblasts (NHLF); assay: Phenotypic high-content assay (HCA) of TGF–β1–induced fibroblast–to–myofibroblast differentiation; type: cell-based; details: for IC50: read-out: HCA IC50; for inhibition at 10 µM: read-out: Effect HCA at 10 µM [% inhibition]
Protocol: (§1) The plate was washed 3 times with starvation medium, e.g. fibroblast basal medium (FBM, Lonza) supplemented with 0.1% faf BSA, 100 units / ml of penicillin and 100 μg / ml of streptomycin and 250 ng / ml amphotericin B, and then starved for 24 h in 30 μl volume. NHLF were differentiated into myofibroblasts by incubation with 5 ng / ml TGF–β1 (from a stock of 20 μg / ml in 4 mM HCl, 1 mg / ml BSA) for 48 h. Compounds were prepared as 5x stocks in starvation medium and added to the starved cells to a final 1x concentration concomitant with TGF–β1 addition. The final DMSO concentration in the assay was 0.6% in all wells. 48 h after TGF–β1 addition, the medium was removed and the cells were fixed in methanol for 10 min at room temperature (RT). After fixation, cells were washed 3 times with 1 x PBS and either stored at 4°C for up to 3 days or further processed. […] Images were acquired on the Opera Phenix confocal high–content screening system (Perkin Elmer) using the 20–x water immersion lens.
(§2) DAPI stained nuclei were used to identify cells. α–SMA and FN regions were then identified and mapped to the corresponding nuclei for background correction, cell segmentation and cell feature computation to identify, classify and weigh over 400 features per cell. The computed features (S1 Table) comprise, but are not limited to, granularity, intensity, texture, area, shape and solidity of a cell in both α–SMA–and FN–expressing regions. The 0% compound effect (5 ng / ml TGF–β1) and the 100% compound effect (0 ng / ml TGF–β1) controls, were used to train and validate a support vector machine (SVM), a supervised learning model with associated learning algorithm that, once successfully validated, was applied to every cell in every well of the assayed microtiter plate. The SVM allowed autonomous weighting and classification of the characteristics and thus enabled the classifier to decide which characteristics were most relevant for the differentiation of the cell types. […] The classification of each cell was aggregated to a cell type ratio per well, represented as the computed percentage effect value per well indicative of the degree of myofibroblast differentiation. E.g. 100% equals complete myofibroblast differentiation, 0% indicates a pure fibroblast population without any signs of differentiation.

[2] = tested on: COL1 protein in NHLF cells; assay: RapidFire MS/MS quantification of COL1 (IPQA), standard assay; type: cell-based, human; details: NHLF, 5 ng/ml TGF–β1, lysed 48 h after TGF–β1, normalized to tubulin, mean ± SD, read-out: MS / MS COL1 IC50
Protocol: (§3) Cell culture medium was removed and cells were lysed on ice by adding 5 μl / well of pre–cooled protein extraction buffer containing 10 mM Tris–HCl (pH 8.0), 6 M urea and 2 M thiourea and shaking on ice on a plate shaker at 600 rpm for 30 min.
(§4) Cell lysate was transferred to a 96–well polypropylene–PCR–plate. 15 μl / well denaturation buffer (6 M urea, 50 mM ammonium bicarbonate) and 2 μl / well of 50 mM TCEP were added and samples were denatured for 1 h at 60°C using the Veriti 96–well Fast Thermal Cycler System (Applied Biosystem) with a heated lid. Plates were allowed to cool to RT. Subsequently, 2 μl of 100 mM iodoacetamide were added per well to derivatize cysteine residues. Plates were then sealed and vortexed for 2 min in the dark and incubated for 30 min at 37°C in a thermal cycler with a heated lid. 90 μl of 50 mM ammonium bicarbonate pH 7.8 were added, followed by the addition of 10 μl of trypsin at 0.02 μg / ml. Samples were trypsin–digested overnight at 37°C in a thermal cycler with heated lid. […] Samples were desalted under vacuum using an Oasis HLB 96–well (30 μm particle size, 5 mg sorbent / well) reverse phase cartridge according to the manufacturer’s instructions and eluted with 170 μl of 90% acetonitrile, 0.1% formic acid. Samples were dried down with a flow of nitrogen at 40°C, left to cool to RT and re–suspended in 40 μl 5% acetonitrile, 0.1% formic acid on a plate shaker set to 1400 rpm for 5 min. Plates were centrifuged at 4,000 rpm for 10 min and 2 times 12 μl / well of supernatant were transferred into separate 96–well plates (Greiner Bio–One), sealed and stored at 4°C until analyzed by MS / MS.
(§5) Surrogate tryptic peptides were chosen for detection of COL1 (COL1A1), α–SMA (ACTA) and tubulin (TBA1A1) and crude synthetic peptides were purchased from Thermo Fischer. After several rounds of optimization following standard workflows, […] (COL1 / COL1A1), […] (α–SMA / ACTA) and […] LC–MS / MS analysis was performed on a RapidFire™ RF360 system (Agilent Technologies) coupled to an API 5500 (ABSciex) with positive ion electrospray ionization. […] Detection was performed using multiple reaction monitoring (MRM) mode to monitor parent⟶product ion transitions (m / z). […] The source parameters were curtain gas (CUR) nitrogen: 20 psig; collision gas (CAD): 7 psig; ion source gas 1: 50.0 psig; ion source gas 2: 50.0 psig; ion spray voltage (IS): 5500 V; turbo heater temperature (TEM): 600°C; entrance potential (EP): 10V. Peak areas for COL1A1 and ACTA were normalized by dividing by TBA1A peak area.

[3] = tested on: normal human lung fibroblasts (NHLF); assay: Impedance measurement of TGF–β1–induced myofibroblast transition (IPQA), standard assay; type: cell-based; details: 5 ng/ml TGF–β1, compound added with TGF–β1, impedance at t = 20 h post TGF–β1, mean ± SD, read-out: Impedance IC50
Protocol: To measure dynamic cell shape and adhesion changes during fibrotic transdifferentiation, NHLF were seeded at a density of 20,000 cells per well in FGM–2 growth medium (Lonza) containing 100 units / ml of penicillin and 100 μg / ml of streptomycin into E–plates with continued impedance signal measurement (xCELLigence system, Roche Applied Science). After overnight growth, the medium was exchanged for FBM (Lonza) supplemented with 100 units / ml of penicillin and 100 μg / ml of streptomycin and 0.1% faf BSA and cells were starved for 32 h. Compound dilution series were added and myofibroblast transition was induced by adding TGF–β1 at a concentration of 5 ng / ml, followed by continued impedance sampling for up to 48 h. For data analysis, impedance raw traces were normalized to the time point of compound addition and the baseline response (DMSO, non–TGF–β1 treated cells) was subtracted. In some cases, impedance values at defined time points were used to generate concentration–response curves to determine compound potency and efficacy using GraphPad Prism software version 7 (GraphPad Software Inc).

[4] = tested on: α–SMA protein in NHLF cells; assay: RapidFire MS/MS quantification of α–SMA (IPQA), standard assay; type: cell-based, human; details: NHLF, 5 ng/ml TGF–β1, lysed 48 h after TGF–β1, normalized to tubulin, mean ± SD, read-out: MS / MS α–SMA IC50
Protocol: as §3, §4, §5

[5] = tested on: normal human lung fibroblasts (NHLF); assay: Nuclear count in the HCA, standard assay; type: cell-based; details: read-out: Nuclear count IC50
Protocol: as §1, §2

NHLF cells = assay: RealTime–Glo MT viability assay
Protocol: The effect of compounds on cell viability was assessed by quantifying the relative metabolic activity of cells using the non–lytic luminescence–based RealTime–Glo™ MT cell viability assay (Promega) according to the manufacturer’s instructions.

[6] = NHLF, 5 ng/ml TGF–β1 for 48 h, compound added with TGF–β1, mean ± SD
[7] = Homo sapiens, Fibroblast, 48 h, standard HCA, NHLF, 5 ng/ml TGF–β1, 48 h
[8] = Homo sapiens, Fibroblast, 48 h, NHLF, 5 ng/ml TGF–β1 for 48 h, compound added with TGF–β1, mean ± SD
[9] = Homo sapiens, Fibroblast, 10 µM compound, 5 ng/ml TGF–β1, 48 h
[10] = Homo sapiens, Fibroblast, standard HCA, NHLF, 5 ng/ml TGF–β1, 48 h
[11] = Homo sapiens, Fibroblast, NHLF, 5 ng/ml TGF–β1 for 48 h, compound added with TGF–β1, mean ± SD

## COc1cc(O)c2c(c1)/C=C/C[C@H](O)[C@H](O)C(=O)/C=C\C[C@H](C)OC2=O [5Z–7–Oxozeaenol]
[1]; [6]
  IC50: 2.6 µM
[2]
  IC50: 0.46 ± 0.27 µM
[3]
  IC50: 0.25 ± 0.17 µM
[4]
  IC50: 0.3 ± 0.27 µM

## CN(C)Cc1cccc(N/C(=C2\C(=O)Nc3cc(C(=O)N(C)C)ccc32)c2ccccc2)c1 [BIX 02189]
[1]; [6]
  IC50: 22 µM
[2]
  IC50: 6.5 µM
[3]
  IC50: 6 µM
[4]
  IC50: 14 µM

## O=C(Nc1cccc(Nc2ncc(Br)c(NCCc3cnc[nH]3)n2)c1)N1CCCC1 [BX–912]
[1]; [6]
  IC50: 17 µM
[2]
  IC50: 8.7 µM
[3]
  IC50: 7.5 µM
[4]
  IC50: 8.6 µM

## CCCCCCCC(=O)c1c(O)cc(O)cc1CC(=O)OCC [Csn–B]
[1]; [6]
  IC50: 39 µM
[2]
  IC50: > 50 µM
[3]
  IC50: > 50 µM
[4]
  IC50: > 50 µM

## Nc1[nH]nc2nnc(-c3c(-c4ccccc4)nn4ccccc34)cc12 [FR180204]
[1]; [6]
  IC50: > 46 µM
[2]
  IC50: 36 µM
[3]
  IC50: 50 µM
[4]
  IC50: 49 µM

## Clc1cc(Cl)c(OCC#CI)cc1Cl [Haloprogin]
[5]; [7]
  IC50: 4.5 µM
[1]; [8]
  IC50: 1.3 µM
[1]; [9]
  inhibition at 10 µM: 77%
NHLF cells; 10 µM compound
  Effect on viability at 10 µM [% reduction]: 61 % reduction

## Cc1ccccc1-n1c(Cn2cnc3c(N)ncnc32)nc2cccc(C)c2c1=O [IC–87114]
[1]; [6]
  IC50: 44 µM
[2]
  IC50: 4.9 µM
[3]
  IC50: > 5 µM
[4]
  IC50: > 5 µM

## CC(C)NC[C@@H](C(=O)N1CCN(c2ncnc3c2[C@H](C)C[C@H]3O)CC1)c1ccc(Cl)cc1 [Ipatasertib]
[1]; [8]
  IC50: 22 µM
[2]; Homo sapiens, Col1
  IC50: > 50 µM
[3]; Fibroblast
  IC50: 43 µM
[4]; Homo sapiens
  IC50: 25 µM

## O=c1cc(N2CCOCC2)oc2c(-c3ccccc3)cccc12 [LY294002]
[1]; [8]
  IC50: 2.4 µM
[2]; Homo sapiens, Col1, 48 h
  IC50: 45 µM
[3]; Fibroblast
  IC50: 13 µM
[4]; Homo sapiens
  IC50: 27 µM

## CC(=O)O[C@H]1C[C@H](O[C@H]2[C@@H](O)C[C@H](O[C@H]3[C@@H](O)C[C@H](O[C@H]4CC[C@@]5(C)[C@H](CC[C@@H]6[C@@H]5C[C@@H](O)[C@]5(C)[C@@H](C7=CC(=O)OC7)CC[C@]65O)C4)O[C@@H]3C)O[C@@H]2C)O[C@H](C)[C@H]1O[C@@H]1O[C@H](CO)[C@@H](O)[C@H](O)[C@H]1O [Lanatoside C]
[5]; [10]
  IC50: > 25 µM
[1]; [9]
  inhibition at 10 µM: 100%
[1]; [11]
  IC50: 0.035 µM
NHLF cells; human, 10 µM
  Effect on viability at 10 µM [% reduction]: 19 % reduction

## C[C@@H]1O[C@@H](O[C@H]2C[C@@H](O)[C@]3(CO)[C@H]4[C@H](O)C[C@]5(C)[C@@H](C6=CC(=O)OC6)CC[C@]5(O)[C@@H]4CC[C@]3(O)C2)[C@H](O)[C@H](O)[C@H]1O [Ouabain]
[5]; [7]
  IC50: > 25 µM
[1]; [8]
  IC50: 0.012 µM
[1]; [9]
  inhibition at 10 µM: 100%
NHLF cells; 10 µM compound
  Effect on viability at 10 µM [% reduction]: 15 % reduction

## C[C@@H]1O[C@@H](O[C@@H]2C=C3CC[C@@H]4[C@H](CC[C@]5(C)[C@@H](c6ccc(=O)oc6)CC[C@]45O)[C@@]3(C)CC2)[C@H](O)[C@H](O)[C@H]1O [Proscillaridin A]
[5]; [10]
  IC50: > 25 µM
[1]; [9]
  inhibition at 10 µM: 101%
[1]; [11]
  IC50: 0.001 µM
NHLF cells; 10 µM compound
  Effect on viability at 10 µM [% reduction]: 12 % reduction

## CCSc1ccc2c(c1)N(CCCN1CCN(C)CC1)c1ccccc1S2.O=C(O)CC(O)C(=O)O.O=C(O)CC(O)C(=O)O [Thiethylperazine dimalate]
[5]; standard HCA, NHLF, 5 ng/ml TGF–β1, 48 h
  IC50: 13 µM
[1]; 10 µM compound, 5 ng/ml TGF–β1, 48 h
  Effect HCA at 10 µM [% inhibition]: 76 % inhibition
[1]; [6]
  IC50: 8.5 µM
NHLF cells
  Effect on viability at 10 µM [% reduction]: 34 % reduction

## C=C(NC(=O)C(=C)NC(=O)c1csc(C2=N[C@@H]3c4csc(n4)[C@H]4NC(=O)c5csc(n5)[C@H]([C@](C)(O)[C@@H](C)O)NC(=O)[C@H]5CSC(=N5)/C(=C/C)NC(=O)[C@H]([C@@H](C)O)NC(=O)c5csc(n5)[C@]3(CC2)NC(=O)[C@H](C)NC(=O)C(=C)NC(=O)[C@H](C)NC(=O)[C@H]([C@@H](C)CC)N[C@@H]2C=Cc3c([C@H](C)O)cc(nc3[C@H]2O)C(=O)O[C@@H]4C)n1)C(N)=O [Thiostrepton]
[5]; Homo sapiens, Fibroblast, 48 h
  IC50: 7.6 µM
[1]; Homo sapiens, Fibroblast, 48 h
  inhibition at 10 µM: 85%
  IC50: 2.2 µM
NHLF cells; 10 µM compound
  Effect on viability at 10 µM [% reduction]: –11 % reduction

## CC[C@@]1(O)C(=O)OCc2c1cc1n(c2=O)Cc2cc3c(CN(C)C)c(O)ccc3nc2-1 [Topotecan]
[5]; [7]
  IC50: > 25 µM
[1]; [8]
  IC50: 0.97 µM
[1]; [9]
  inhibition at 10 µM: 88%
NHLF cells; human, 10 µM
  Effect on viability at 10 µM [% reduction]: 8 % reduction
